Data reported in US20220409619A1, “INHIBITORS OF HUMAN IMMUNODEFICIENCY VIRUS REPLICATION” (VIIV HEALTHCARE UK (No. 5) LIMITED, priority 2019, published 2022).

Experiments:
[1] = test system: recombinant NL4-3 virus (nef section replaced with Renilla luciferase gene) in MT-2 cells; assay: HIV cell culture assay (antiviral activity, luciferase readout); type: cell-based; settings: Renilla, NL43
How it was run: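 MT-2 cells were infected for 4-5 days with 293T-derived NL4-3 Renilla-luciferase reporter virus in the presence of serial compound dilutions. Luciferase was read with EnduRen live-cell substrate. EC50 was fitted with the median effect equation.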

[2] = Compound cytotoxicity, XTT-based colorimetric assay; type: cell-based; settings: human; uninfected MT2 cells, day 4, XTT-based colorimetric assay
How it was run: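 Run under the antiviral-assay protocol but without virus. Viability was read on day 4 and CC50 values were derived from the readout.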

Row | SMILES | EC50 [1] [nM] | CC50 at 4 days [2] [nM]
1 | CCOc1ncc(-c2cc(=O)n(-c3ccc(Cl)c4c(NS(C)(=O)=O)nn(C)c34)c([C@H](Cc3cc(F)cc(F)c3)NC(=O)Cn3nc(C(F)F)c4c3C(F)(F)[C@@H]3C[C@H]43)n2)cn1 (atropisomer, axis not shown; (P)) [Example 11, N-((S)-1-((1P)-1-(4-chloro-1-methyl-3-(methylsulfonamido)-1H-indazol-7-yl)-2′-ethoxy-6-oxo-1,6-dihydro-[4,5′-bipyrimidin]-2-yl)-2-(3,5-difluorophenyl)ethyl)-2-((3bS,4aR)-3-(difluoromethyl)-5,5-difluoro-3b,4,4a,5-tetrahydro-1H-cyclopropa[3,4]cyclopenta[1,2-c]pyrazol-1-yl)acetamide] | 0.81 | > 100
2 | Cn1nc(NS(C)(=O)=O)c2c(Cl)ccc(-n3c([C@H](Cc4cc(F)cc(F)c4)NC(=O)Cn4nc(C(F)F)c5c4C(F)(F)[C@@H]4C[C@H]54)nc(-c4ccn(CC(C)(F)F)n4)cc3=O)c21 (atropisomer, axis not shown; (P)) [Example 8, N-((S)-1-((1P)-1-(4-chloro-1-methyl-3-(methylsulfonamido)-1H-indazol-7-yl)-4-(1-(2,2-difluoropropyl)-1H-pyrazol-3-yl)-6-oxo-1,6-dihydropyrimidin-2-yl)-2-(3,5-difluorophenyl)ethyl)-2-((3bS,4aR)-3-(difluoromethyl)-5,5-difluoro-3b,4,4a,5-tetrahydro-1H-cyclopropa[3,4]cyclopenta[1,2-c]pyrazol-1-yl)acetamide] | 0.28 | > 100
3 | Cc1cc(C)nc(-c2cc(=O)n(-c3ccc(Cl)c4c(NS(=O)(=O)C5CC5)nn(CC(F)F)c34)c([C@H](Cc3cc(F)cc(F)c3)NC(=O)Cn3nc(C(F)F)c4c3C(F)(F)[C@@H]3C[C@H]43)n2)n1 (atropisomer, axis not shown; (aR)) [Example 34, N-((S)-1-(1′-(4-chloro-3-(cyclopropanesulfonamido)-1-(2,2-difluoroethyl)-1H-indazol-7-yl)-4,6-dimethyl-6′-oxo-1′,6′-dihydro-[2,4′-bipyrimidin]-2′-yl)-2-(3,5-difluorophenyl)ethyl)-2-((3bS,4aR)-3-(difluoromethyl)-5,5-difluoro-3b,4,4a,5-tetrahydro-1H-cyclopropa[3,4]cyclopenta[1,2-c]pyrazol-1-yl)acetamide] | 0.24 | > 100
4 | Cc1ccnc(-c2cc(=O)n(-c3ccc(Cl)c4c(NS(C)(=O)=O)nn(C)c34)c([C@H](Cc3cc(F)cc(F)c3)NC(=O)Cn3nc(C(F)F)c4c3C(F)(F)[C@@H]3C[C@H]43)n2)c1 (atropisomer, axis not shown; (P)) [Example 16, N-((S)-1-((1P)-1-(4-chloro-1-methyl-3-(methylsulfonamido)-1H-indazol-7-yl)-4-(4-methylpyridin-2-yl)-6-oxo-1,6-dihydropyrimidin-2-yl)-2-(3,5-difluorophenyl)ethyl)-2-((3bS,4aR)-3-(difluoromethyl)-5,5-difluoro-3b,4,4a,5-tetrahydro-1H-cyclopropa[3,4]cyclopenta[1,2-c]pyrazol-1-yl)acetamide] | 0.31 | > 100
5 | CCc1cnc(-c2cc(=O)n(-c3ccc(Cl)c4c(NS(=O)(=O)C5CC5)nn(CC(F)F)c34)c([C@H](Cc3cc(F)cc(F)c3)NC(=O)Cn3nc(C(F)F)c4c3C(F)(F)[C@@H]3C[C@H]43)n2)nc1 (atropisomer, axis not shown; (aR)) [Example 39, N-((S)-1-((1′P)-1′-(4-chloro-3-(cyclopropanesulfonamido)-1-(2,2-difluoroethyl)-1H-indazol-7-yl)-5-ethyl-6′-oxo-1′,6′-dihydro-[2,4′-bipyrimidin]-2′-yl)-2-(3,5-difluorophenyl)ethyl)-2-((3bS,4aR)-3-(difluoromethyl)-5,5-difluoro-3b,4,4a,5-tetrahydro-1H-cyclopropa[3,4]cyclopenta[1,2-c]pyrazol-1-yl)acetamide] | 0.059 | > 100
6 | Cn1nc(NS(C)(=O)=O)c2c(Cl)ccc(-n3c([C@@H](Cc4cc(F)cc(F)c4)NC(=O)Cn4nc(C(F)F)c5c4C(F)(F)[C@@H]4C[C@H]54)nc(-c4ccccc4)cc3=O)c21 (atropisomer, axis not shown; (aR)) [Example 2, N-((R)-1-(1-(4-chloro-1-methyl-3-(methylsulfonamido)-1H-indazol-7-yl)-6-oxo-4-phenyl-1,6-dihydropyrimidin-2-yl)-2-(3,5-difluorophenyl)ethyl)-2-((3bS,4aR)-3-(difluoromethyl)-5,5-difluoro-3b,4,4a,5-tetrahydro-1H-cyclopropa[3,4]cyclopenta[1,2-c]pyrazol-1-yl)acetamide] | 190 | > 500
7 | CC(F)(F)Cn1ccc(-c2cc(=O)n(-c3ccc(Cl)c4c(NS(=O)(=O)C5CC5)nn(CC(F)F)c34)c([C@H](Cc3cc(F)cc(F)c3)NC(=O)Cn3nc(C(F)F)c4c3C(F)(F)[C@@H]3C[C@H]43)n2)n1 (atropisomer, axis not shown; (P)) [Example 42, N-((S)-1-((1P)-1-(4-chloro-3-(cyclopropanesulfonamido)-1-(2,2-difluoroethyl)-1H-indazol-7-yl)-4-(1-(2,2-difluoropropyl)-1H-pyrazol-3-yl)-6-oxo-1,6-dihydropyrimidin-2-yl)-2-(3,5-difluorophenyl)ethyl)-2-((3bS,4aR)-3-(difluoromethyl)-5,5-difluoro-3b,4,4a,5-tetrahydro-1H-cyclopropa[3,4]cyclopenta[1,2-c]pyrazol-1-yl)acetamide] | 0.21 | > 100
8 | Cn1nc(NS(C)(=O)=O)c2c(Cl)ccc(-n3c([C@H](Cc4cc(F)cc(F)c4)NC(=O)Cn4nc(C(F)F)c5c4C(F)(F)[C@@H]4C[C@H]54)nc(-c4ccccc4)cc3=O)c21 (atropisomer, axis not shown; (aR)) [Example 1, N-((S)-1-(1-(4-chloro-1-methyl-3-(methylsulfonamido)-1H-indazol-7-yl)-6-oxo-4-phenyl-1,6-dihydropyrimidin-2-yl)-2-(3,5-difluorophenyl)ethyl)-2-((3bS,4aR)-3-(difluoromethyl)-5,5-difluoro-3b,4,4a,5-tetrahydro-1H-cyclopropa[3,4]cyclopenta[1,2-c]pyrazol-1-yl)acetamide] | 0.72 | > 500
9 | Cn1nc(NS(C)(=O)=O)c2c(Cl)ccc(-n3c([C@H](Cc4cc(F)cc(F)c4)NC(=O)Cn4nc(C(F)F)c5c4C(F)(F)[C@@H]4C[C@H]54)nc(-c4ccc(Cl)cn4)cc3=O)c21 (atropisomer, axis not shown; (P)) [Example 24, N-((S)-1-((1P)-1-(4-chloro-1-methyl-3-(methylsulfonamido)-1H-indazol-7-yl)-4-(5-chloropyridin-2-yl)-6-oxo-1,6-dihydropyrimidin-2-yl)-2-(3,5-difluorophenyl)ethyl)-2-((3bS,4aR)-3-(difluoromethyl)-5,5-difluoro-3b,4,4a,5-tetrahydro-1H-cyclopropa[3,4]cyclopenta[1,2-c]pyrazol-1-yl)acetamide] | 0.37 | > 100
